Experimental data reported in PMC9115111, “Metalloprotease Gp63-Targeting Novel Glycoside Exhibits Potential Antileishmanial Activity” (Frontiers in Cellular and Infection Microbiology, 2022).

Tests used:
[1] = tested on: L. donovani promastigotes; test: JC-1 mitochondrial membrane potential in promastigotes; assay type: cell-based, Leishmania donovani; settings: treated promastigotes vs control, 24 h
Procedure: Mitochondrial membrane (Δψm) potential was examined using 5,6-dichloro-2-[3-(5,6-dichloro-1,3-diethyl-1,3-dihydro-2H-benzimidazol-2-ylidene)-1propenyl]-1,3-diethyl-,iodide (JC-1 dye) (Life Technologies, USA) as a probe. Treated and untreated groups were incubated for 24 h. Cells were washed with PBS and JC-1 labeled, and samples were analyzed through FACS diva (Beckton-Dickinson, Pharmingen). The approximate fluorescence excitation/emission maxima of 514/529 nm for monomeric form and 585/590 nm for J-aggregate form were used. The labeled cells were also allowed to adhere to glass slides for visualization under fluorescence microscope (Nikon Ti eclipse, USA) ([Shivappagowdar et al., 2019]).

[2] = MTT cell viability assay on macrophages; assay type: cell-based, murine; settings: mouse, J774.A1 macrophage cells; Table 1; macrophages
Procedure: (§1) The J774.A1 murine macrophage cells were grown in Roswell Park Memorial Institute (RPMI) 1640 medium in the presence of 10% (v/v) FBS and 100 U/ml penicillin−100 µg/ml streptomycin (Gibco, Invitrogen, Thermo Fisher Scientific, NY, USA) at 37°C (humidified) and 5% CO2. […] Madin–Darby canine kidney (MDCK) cells were obtained from the National Centre for Cell Science, Pune, India. MDCK cells were derived from the kidney tissue of an adult female Cocker Spaniel. These were grown in Dulbecco’s modified Eagle’s minimal essential medium (DMEM) in the presence of 10% (v/v) FBS and 100 U/ml penicillin−100 µg/ml streptomycin (Gibco, Invitrogen, Thermo Fisher Scientific, NY, USA) at 37°C (humidified) and 5% CO2 ([Ayana et al., 2018]; [Shivappagowdar et al., 2021]).
(§2) All the compounds were dissolved in dimethyl sulfoxide (DMSO) (Sigma-Aldrich) for 1 mM stock solution and were screened against promastigotes at a concentration of 5 µM. For Glycosides (Gly) 2, 6, and 8, a range of concentrations starting from 100 nM to 100 µM were screened against promastigote forms of parasite and mammalian cells. Parasites (AG83 and PKDL strain) treated with amphotericin B (3 µg/ml) (Sigma-Aldrich) were maintained as the positive control.
(§3) To evaluate the cytotoxic effects of 12 compounds on L. donovani promastigotes, LDH assay was performed. This assay involves the reduction of tetrazolium salts to formazan during LDH-mediated catalysis of lactate to pyruvate, which can be detected at […]. Rate of formazan formation is proportional to the release of LDH through damaged cell membranes. For the preliminary screening, the promastigotes were incubated with 12 compounds at a single concentration of 5 µM for a period of 72 h, and the released LDH was estimated ( Supplementary Figure S1A ). Amphotericin B-treated promastigotes were taken as the positive control. […] Having observed the antileishmanial effect of Gly2 on growth and proliferation of promastigotes, we next investigated the cytotoxicity of Gly2 on mammalian cells (MDCK, J774.1A) through MTT (3-(4, 5-dimethylthiazolyl-2)-2, 5-diphenyltetrazolium bromide) cell viability assay ( Supplementary Figures S1B, C ). […] The CC50 values of Gly2 analog was in the micromolar range. The selectivity index (SI) for the compound was calculated as the ratio between cytotoxicity (CC50) and activity (IC50) against promastigotes ( Table 1 ).

[3] = tested on: J774.A1 murine macrophage cells; test: MTT cell viability assay on macrophages; assay type: cell-based; settings: MTT assay
Procedure: as §1, §2, §3

[4] = tested on: L. donovani intracellular amastigotes in J774.A1 macrophages; test: Intramacrophage amastigote assay (Giemsa staining, J774.A1); assay type: cell-based, Leishmania donovani; settings: treated at IC50 concentration, 24 h; untreated control ~5
Procedure: For evaluating the efficacy of compounds against intramacrophage amastigotes, Giemsa staining (Sigma-Aldrich) was performed. J774.A1 murine macrophage cells were plated at a cell density of 5 × 10^5 cell/well in a 6-well flat bottom plate. The cells were infected with late-stage L. donovani, rich in promastigotes at a ratio of 10:1. After 6 h, uninfected promastigotes were washed off with PBS.

[5] = tested on: promastigotes of clinical isolate of PKDL strain, BS12 of L. donovani; test: LDH cytotoxicity assay on promastigotes of clinical PKDL isolate BS12; assay type: cell-based; settings: Leishmania donovani, LDH assay 72 h
Procedure: Promastigote forms of L. donovani (MHOM/IN/1983/AG83) were cultured at 26°C in M199 (GIBCO, India), pH 7.4, supplemented with 10% (v/v) inactivated fetal bovine serum (FBS, GIBCO, India) and 0.02 mg/ml gentamycin (Life Technologies, USA). The clinical isolate of PKDL, BS12, was obtained as a gift from Prof. Mitali Chatterjee [Department of Pharmacology, Institute of Postgraduate Medical Education and Research (IPGMER), Kolkata, India]. […]
AG83 strain of L. donovani were exposed to various Gly compound concentrations (100 nM–100 µM) in a 96-well microtiter plate (100 µl/well volume) and were incubated for 72 h at 26°C. […] The percent cytotoxicity of test compounds was calculated by normalizing with amphotericin B as 100%. Further percentage growth inhibition was calculated using the formula: […]
We further evaluated the effect the Gly2 on the clinical isolate of PKDL strain, BS12 of L. donovani ([Sengupta et al., 2019]). […] Along with Gly2, we also evaluated the cytotoxic effects of 12 compounds on L. donovani promastigotes derived from clinical isolates of PKDL strain at 5 µM ( Supplementary Figure S2 ).

CC(C)CCOC1O[C@H](CO)[C@@H](O)[C@H](O)[C@H]1O (some centres unmarked) [Gly2]
mitochondrial uptake of JC-1 dye (ΔΨm) [1]: significantly decreased
CC50 [2]: 2900 µM
cytotoxicity in macrophage cells [3]: minimum level of cytotoxicity
number of amastigotes per infected macrophage [4]: ~ 1 amastigotes/macrophages
IC50 [5]: 1.97 µM
